Residues, ends and D or L forms follow the SMILES beside them. *: point of attachment. Cbz = O=C(OCc1ccccc1)*
Legend:
PHF20 protein = PHF20 protein amounts after MG132 treatment; assay type: cell-based; settings: even when both Trim26 and Jmjd3 were overexpressed
Description: (§1) Jmjd3-Trim26 is responsible for the enhanced reprogramming efficiency observed in Jmjd3-1-MEFs or in Dox-treated Tet-O-PHF20 MEFs.

iPSC colony formation = iPSC colony formation and cell death after MG132 treatment; assay type: cell-based
Experimental: Mouse iPSCs were generated as previously described (Takahashi et al., 2007a) with some minor modifications. Briefly, MEFs (1-8×10^4/well) were seeded on irradiated-MEFs in a 6-well plate. On the next day, the cells were transduced with an equal amount of lentiviruses expressing the four factors and rtTA. The following day, transduced-MEFs were cultured with mESC medium containing 2 μg/mL Dox for 14 days. Tet-O-4F MEFs were used to generate iPSCs by treating MEFs with Dox in mESC medium. The efficiency of iPSC formation as calculated based on the number of AP positive iPSC colonies and the initial cell number of seeded MEFs. Human iPSCs were generated as previously described (Park et al., 2008).
as §1

[1] = system: PHF20938-946-specific CD8+ T cells; assay: Recognition of peptide-pulsed T2 cells by PHF20-specific T cells (IFN-γ release); assay type: cell-based, human; settings: T cells generated from PBMCs of HLA-A2+ healthy donors; FIG. 9A
Experimental: (FIG. 9A) PHF20938-946-specific CD8^+ T cells were generated from normal donor PBMCs after in vitro stimulation with PHF20 peptides, and used to determine the recognition of T2 cells loaded with different concentrations of PHF20938-946, peptide, or a control peptide as a negative control. (FIG. 9B) PHF20938-946-specific T cells were cultured alone in medium or co-incubated with HLA-A2^+ PHF20^+ (MCF-7) or HLA-A2^− PHF20^+ (DU4475, MDA-MB-361) breast cancer cell lines. A normal breast epithelial cell line MCF-10A is included as a control. T cell activity was determined by measuring cytokine (IFN-γ) release. (FIG. 9C) PHF20938-946-specific CD8^+ T cells were tested for cytotoxicity against MCF-7 by the LDH assay. HLA-A2 negative PHF20^+ PC3 cells were used as a negative control in the LDH assay. Data are plotted as means t SD. Results are representative of three independent experiments. *P<0.05, **P<0.01, ***P<0.001 versus controls.
Furthermore, PHF20-specific T cells could lyse HLA-A2^+ and PHF20^+ MCF-7 breast cancer cells (FIG. 9C).

Molecule	amounts of PHF20 protein (PHF20 protein)	cell death (iPSC colony formation; MG132 treatment during reprogramming)	iPSC colony formation (iPSC colony formation; after MG132 treatment)	recognition of peptide-pulsed cells by PHF20-specific T cells [1]
CC(C)C[C@@H](C=O)NC(=O)[C@H](CC(C)C)NC(=O)[C@H](CC(C)C)NC(=O)OCc1ccccc1 [MG132] (Cbz-Leu-Leu-Leu-aldehyde)	increased the amounts of PHF20 protein	caused cell death	no iPSC colony formation was observed	
WQFNLLTHV (PHFP 2)				capable of recognizing

— patent publication US20160017011A1, “PHF20 AND JMJD3 COMPOSITIONS AND METHODS OF USE IN CANCER IMMUNOTHERAPY” (priority 2013, published 2016)
